Laboratory results reported in US20110123512A1, “METHOD OF REGULATING THE HEAT SHOCK RESPONSE” (priority 2008, published 2011).
“Also recorded” adds a separate entry of the source.

Legend:
[1] = system: cadmium responsive genes, cdr-1 and mtl-1; assay: cadmium stress: cadmium-responsive gene induction; assay type: in vivo, C. elegans
Description: (§1) mRNA was prepared using the “ABSOLUTELY RNA® Nanoprep Kit” (Stratagene, Catalog #400753). The manufacturer's protocol was adapted to achieve maximal lysis of worms. Briefly, 5-10 adult animals were picked either from the control or experimental plates into 100 μl of buffer made up by mixing 7 μl 13-ME (instead of the recommended 0.7 μl 13-ME), with 100 μl Lysis Buffer provided by the manufacturer. The suspension was subjected to numerous cycles of freeze-thawing in liquid nitrogen and vortexing until the animals were completely lysed. RNA was then purified as detailed in the manufacturer's protocol. mRNA was reverse transcribed using the ISCRIPT™ cDNA Synthesis Kit (Bio-Rad, Catalog #170-8891). Quantitative PCR was performed using iQ™ SYBR® Green Supermix (Bio-Rad, Catalog #170-8880), in the iCycler system (Bio-Rad) at a 25 μl sample volume, in thin wall 200 μl PCR plates (Cat. No. 223-9441) sealed with the optical quality sealing tape (Cat. No. 223-9444).
The relative amounts of hsp mRNA were determined using the Comparative CT Method for quantitation (14). The levels of hsp mRNA levels within an experiment were determined relative to actin mRNA, which was used as the internal control. The range of input of RNA was determined using serial dilutions of the cDNA that yielded a CT value of <30, for both the target cDNA and actin was used in all experiments. This typically corresponded to 1 μl of the total cDNA obtained per sample. CT values were obtained in triplicate for each sample (technical triplicate), and three samples were used per experiment. Each experiment was then repeated a minimum of three times. All relative changes of hsp mRNA in the mutant strains were normalized to maximal wild-type values, except where otherwise noted.
Sterile-filtered cadmium chloride was added to a final concentration of 50 μM to standard, autoclaved, NGM medium, and used to make plates. OP50 was seeded onto the plates as described above. […] These animals were then harvested for quantitative RT-PCR. […]

[2] = system: hsp70 (C12C8.1) mRNA; assay: cadmium stress: hsp70 (C12C8.1) induction; assay type: in vivo, C. elegans; conditions: 50 μM
Description: as §1
(§2) The relative amounts of hsp mRNA were determined using the Comparative CT Method for quantitation (14). The levels of hsp mRNA levels within an experiment were determined relative to actin mRNA, which was used as the internal control. The range of input of RNA was determined using serial dilutions of the cDNA that yielded a CT value of <30, for both the target cDNA and actin was used in all experiments. […]

[3] = system: hsp70 (C12C8.1) mRNA; assay: effect of dauer pheromone on the heat shock response; assay type: in vivo, C. elegans
Description: C. elegans strains were grown as described above, and all animals were heat shocked at a population density of 10 adults per plate. Sufficient N values were obtained by repeating each heat shock experiment a minimum of 3 times, with 3 samples of 10 animals per plate, per experiment. Heat shock at 30° C. or 34° C., for 15 minutes on agarose plates was achieved by sealing plates with parafilm, further sealing within zip-lock bags, and immersing in a water bath equilibrated to the appropriate temperature. Following heat shock, the parafilm was removed and the animals were allowed to recover at 20° C. for the course of the experiment.
mRNA was prepared using the “ABSOLUTELY RNA® Nanoprep Kit” (Stratagene, Catalog #400753). […] Quantitative PCR was performed using iQ™ SYBR® Green Supermix (Bio-Rad, Catalog #170-8880), in the iCycler system (Bio-Rad) at a 25 μl sample volume, in thin wall 200 μl PCR plates (Cat. No. 223-9441) sealed with the optical quality sealing tape (Cat. No. 223-9444).
as §2

[4] = system: C. elegans; assay: anesthesia: inhibition of movement and recovery; assay type: in vivo; conditions: within the first 15 minutes following exposure; no death; 10 adults per plate
Description: The VA anesthetics used were 2-Bromo-2-chloro-1,1,1-trifluoroethane (Halothane, Fluka, catalog #16730) and Isoflurane (Webster Veterinary NDC#14043-220-05). VA anesthetics were delivered as follows: lids of 1.5 ml eppendorf tubes were cut off, VA was pipetted into the lids, and the lids containing VAs were placed onto plates containing 10 adult wild-type or gcy-8 animals grown as described, and the plates were immediately sealed with parafilm. To inhibit neuronal signaling during the course of heat shock, the VA containing lids were placed on plates 5 minutes prior to the heat shock, and retained during the heat shock treatment of 34° C. for 15 minutes. The lids were then removed 10 minutes post-heat shock during recovery at 20° C., when the plates had equilibrated to 20° C. To inhibit neuronal signaling following the administration of heat shock, animals were heat shocked, and then the lids containing the same volume of VA was placed onto plates 20 minutes post-heat shock, and removed after 30 minutes.
As has been described before, the effect of the VA is extremely variable in any given population of C. elegans (15, 16) and is also influenced by other environmental factors, such as population density, to which the animals are exposed (15). Therefore it was necessary to titrate the amount of VA used for each experiment. […]

[5] = system: hsp70 (C12C8.1) expression; assay: heat shock induction of hsp70 (C12C8.1) in worms anesthetized with volatile anesthetics; assay type: in vivo, C. elegans; conditions: for hsp70 (C12C8.1) expression in somatic cells: wild-type animals exposed to VAs for the full duration of heat shock (34° C., 15 minutes), 2 hours after recovery; for fraction of animals expressing GFP (hsp70 (C12C8.1) promoter GFP reporter): wild-type animals, VAs during heat shock, 2 hours post-heat shock, control 100%

SMILES: [Cl][Cd][Cl] [cadmium, cadmium chloride]
- expression of cdr-1 and mtl-1 upon exposure to cadmium ([1]; gcy-8 (thermosensory deficient) adult animals): can induce
- expression of cdr-1 and mtl-1 upon exposure to cadmium ([1]; osm-9 and ocr-2 mutant animals): deficient in their ability to upregulate
- cdr-1 mRNA ([1]; wild-type and gcy-8 mutant animals, 3 hours of exposure, 50 μM): similarly increased
- hsp70 (C12C8.1) mRNA further induction ([2]; after 16 hours of exposure): more than 10 fold
- hsp70 (C12C8.1) mRNA ([2]; wild-type and gcy-8 mutant animals, 3 hours of exposure): similarly increased

SMILES: C[C@H](CCCCC(=O)O)O[C@@H]1O[C@@H](C)[C@H](O)C[C@H]1O [dauer pheromone]
- amounts of hsp70 (C12C8.1) mRNA after heat shock ([3]; gcy-8 mutant animals exposed to dauer pheromone, compared with heat-shocked wild-type under optimal growth conditions): induced even higher amounts
- amounts of hsp70 (C12C8.1) mRNA after heat shock ([3]; wild-type animals, high concentrations of dauer pheromone prior to or during heat shock (34° C., 15 minutes)): decreased

SMILES: FC(F)(F)C(Cl)Br (stereo not shown) [halothane, 2-Bromo-2-chloro-1,1,1-trifluoroethane]
- volume of VA that inhibited the movement of 100% of the animals on a plate [4]: 5 to 15 µL
- hsp70 (C12C8.1) expression in somatic cells [5]: inhibition; also recorded: marked decrease
- fraction of animals expressing GFP (hsp70 (C12C8.1) promoter GFP reporter) [5]: 20%

SMILES: FC(F)OC(Cl)C(F)(F)F (stereo not shown) [isoflurane, Isoflurane]
- volume of VA that inhibited the movement of 100% of the animals on a plate [4]: 10 to 25 µL
- hsp70 (C12C8.1) expression in somatic cells [5]: inhibition; also recorded: marked decrease
- fraction of animals expressing GFP (hsp70 (C12C8.1) promoter GFP reporter) [5]: 20%
